In patent publication US10683269B2 (MISSION THERAPEUTICS LIMITED, priority 2016, dated 2020):
pIC50: −log10 of the molar value.

Each compound was assayed against T1, USP7 (Homo sapiens, UniProt Q93009) (assay: USP7 biochemical IC50 assay (fluorescence polarisation, TAMRA labelled peptide linked to ubiquitin via an iso-peptide bond)). Details: 30 min pre-incubation of enzyme and compound, read after 2 hr incubation at room temperature, read-out: IC50 range.
T1 construct: The USP7 construct was PCR amplified and cloned into a pFLAG-CMV-6a vector (Sigma-Aldrich) with an N-terminal FLAG tag; made in house; host or cells: HEK293T
How it was run: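 Fluorescence polarisation at 540 nm excitation/590 nm emission, read immediately and after 2 hr at room temperature, following addition of 50 nM TAMRA-labelled iso-peptide ubiquitin substrate.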

T1 sequence (Q93009 whole entry): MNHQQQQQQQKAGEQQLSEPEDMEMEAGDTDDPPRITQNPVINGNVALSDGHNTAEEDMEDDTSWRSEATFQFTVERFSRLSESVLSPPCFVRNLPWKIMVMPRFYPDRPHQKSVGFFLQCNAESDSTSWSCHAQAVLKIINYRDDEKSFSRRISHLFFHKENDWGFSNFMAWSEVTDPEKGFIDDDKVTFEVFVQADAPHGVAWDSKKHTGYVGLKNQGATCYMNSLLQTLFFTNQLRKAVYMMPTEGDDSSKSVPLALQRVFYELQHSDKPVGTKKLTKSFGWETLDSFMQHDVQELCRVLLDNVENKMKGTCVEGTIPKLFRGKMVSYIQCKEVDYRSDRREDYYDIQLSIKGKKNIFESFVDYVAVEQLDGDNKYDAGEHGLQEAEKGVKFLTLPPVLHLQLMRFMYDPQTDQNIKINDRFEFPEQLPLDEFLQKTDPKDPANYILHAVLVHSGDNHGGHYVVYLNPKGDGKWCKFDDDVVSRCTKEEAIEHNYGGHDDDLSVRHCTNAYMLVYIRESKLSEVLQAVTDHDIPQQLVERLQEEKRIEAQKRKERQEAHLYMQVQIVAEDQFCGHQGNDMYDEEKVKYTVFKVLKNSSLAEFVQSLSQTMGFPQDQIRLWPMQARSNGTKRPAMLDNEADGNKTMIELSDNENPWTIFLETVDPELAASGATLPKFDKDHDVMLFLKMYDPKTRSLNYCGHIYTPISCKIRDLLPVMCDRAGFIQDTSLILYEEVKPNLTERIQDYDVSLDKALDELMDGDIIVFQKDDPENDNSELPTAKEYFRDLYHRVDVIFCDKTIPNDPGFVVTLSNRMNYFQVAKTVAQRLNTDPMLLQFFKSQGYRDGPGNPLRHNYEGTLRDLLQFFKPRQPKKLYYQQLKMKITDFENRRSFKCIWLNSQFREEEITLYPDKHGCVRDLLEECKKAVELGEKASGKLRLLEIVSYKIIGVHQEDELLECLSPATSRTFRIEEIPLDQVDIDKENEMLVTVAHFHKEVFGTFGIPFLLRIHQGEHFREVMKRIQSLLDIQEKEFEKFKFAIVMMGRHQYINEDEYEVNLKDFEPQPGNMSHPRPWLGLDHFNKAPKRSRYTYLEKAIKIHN

Structure (SMILES) | pIC50
N#CN1Cc2nc(NCCO)nc(-c3ccc(F)c(F)c3)c2C1 [Example 209, 4-(3,4-difluorophenyl)-2-((2-hydroxyethyl)amino)-5,7-dihydro-6H-pyrrolo[3,4-d]pyrimidine-6-carbonitrile] | 5.00 to 6.00
CS(=O)(=O)Cc1cc2c(c(-c3ccc(C#N)cc3)c1)CN(C#N)C2 [Example 216, 4-(4-cyanophenyl)-6-((methylsulfonyl)methyl)isoindoline-2-carbonitrile] | 5.00 to 6.00
CC(=O)NCc1cc2c(c(-c3ccc(C#N)cc3)c1)CN(C#N)C2 [Example 217, N-((2-cyano-7-(4-cyanophenyl)isoindolin-5-yl)methyl)acetamide] | 5.00 to 6.00
CC(=O)N(C)Cc1cc2c(c(-c3ccc(C#N)cc3)c1)CN(C#N)C2 [Example 218, N-((2-cyano-7-(4-cyanophenyl)isoindolin-5-yl)methyl)-N-methylacetamide] | 5.00 to 6.00
N#Cc1ccc(-c2cc(CNC(=O)C3CCOCC3)cc3c2CN(C#N)C3)cc1 [Example 219, N-((2-cyano-7-(4-cyanophenyl)isoindolin-5-yl)methyl)tetrahydro-2H-pyran-4-carboxamide] | 5.00 to 6.00
N#Cc1ccc(-c2cc(CNC(=O)C3CCS(=O)(=O)CC3)cc3c2CN(C#N)C3)cc1 [Example 220, N-((2-cyano-7-(4-cyanophenyl)isoindolin-5-yl)methyl)tetrahydro-2H-thiopyran-4-carboxamide 1,1-dioxide] | 5.00 to 6.00
Cn1cc(C(=O)NCc2cc3c(c(-c4ccc(C#N)cc4)c2)CN(C#N)C3)cn1 [Example 221, N-((2-cyano-7-(4-cyanophenyl)isoindolin-5-yl)methyl)-1-methyl-1H-pyrazole-4-carboxamide] | > 6.00
CS(=O)(=O)NCc1cc2c(c(-c3ccc(C#N)cc3)c1)CN(C#N)C2 [Example 222, N-((2-cyano-7-(4-cyanophenyl)isoindolin-5-yl)methyl)methanesulfonamide] | 5.00 to 6.00
CN(C)C(=O)NCc1cc2c(c(-c3ccc(C#N)cc3)c1)CN(C#N)C2 [Example 223, 3-((2-cyano-7-(4-cyanophenyl)isoindolin-5-yl)methyl)-1,1-dimethylurea] | 5.00 to 6.00
CC(C)OC(=O)NCc1cc2c(c(-c3ccc(C#N)cc3)c1)CN(C#N)C2 [Example 224, isopropyl ((2-cyano-7-(4-cyanophenyl)isoindolin-5-yl)methyl)carbamate] | 5.00 to 6.00
CC(=O)NCc1cc2c(c(-c3ccccc3C#N)c1)CN(C#N)C2 [Example 225, N-((2-cyano-7-(2-cyanophenyl)isoindolin-5-yl)methyl)acetamide] | 5.00 to 6.00
CC(=O)NCc1cc2c(c(-c3ccc(C#N)cc3C#N)c1)CN(C#N)C2 [Example 226, N-((2-cyano-7-(2,4-dicyanophenyl)isoindolin-5-yl)methyl)acetamide] | 5.00 to 6.00
CNC(=O)NCc1cc2c(c(-c3ccc(C#N)cc3)c1)CN(C#N)C2 [Example 227, 1-((2-cyano-7-(4-cyanophenyl)isoindolin-5-yl)methyl)-3-methylurea] | > 6.00
CNC(=O)NCc1cc2c(c(-c3ccc(C#N)cc3C#N)c1)CN(C#N)C2 [Example 228, 1-((2-cyano-7-(2,4-dicyanophenyl)isoindolin-5-yl)methyl)-3-methylurea] | 5.00 to 6.00
CNC(=O)NCc1cc2c(c(-c3ccccc3C#N)c1)CN(C#N)C2 [Example 229, 1-((2-cyano-7-(2-cyanophenyl)isoindolin-5-yl)methyl)-3-methylurea] | 5.00 to 6.00
N#Cc1ccc(-c2cc(CNc3ccn[nH]3)cc3c2CN(C#N)C3)cc1 [Example 230, 6-(((1H-pyrazol-5-yl)amino)methyl)-4-(4-cyanophenyl)isoindoline-2-carbonitrile] | > 6.00
CN(C)C(=O)c1cc2c(c(-c3ccc(C#N)cc3)c1)CN(C#N)C2 [Example 232, 2-cyano-7-(4-cyanophenyl)-N,N-dimethylisoindoline-5-carboxamide] | 5.00 to 6.00
N#Cc1ccc(-c2cc(C(N)=O)cc3c2CN(C#N)C3)c(C#N)c1 [Example 233, 2-cyano-7-(2,4-dicyanophenyl)isoindoline-5-carboxamide] | 5.00 to 6.00
COc1ccc(C#N)c(-c2cc(C(N)=O)cc3c2CN(C#N)C3)c1 [Example 234, 2-cyano-7-(2-cyano-5-methoxyphenyl)isoindoline-5-carboxamide] | 5.00 to 6.00
N#Cc1cc(F)ccc1-c1cc(C(N)=O)cc2c1CN(C#N)C2 [Example 235, 2-cyano-7-(2-cyano-4-fluorophenyl)isoindoline-5-carboxamide] | 5.00 to 6.00
N#Cc1ccc(-c2cc(C(=O)N3CCS(=O)(=O)CC3)cc3c2CN(C#N)C3)cc1 [Example 236, 4-(4-cyanophenyl)-6-(1,1-dioxidothiomorpholine-4-carbonyl)isoindoline-2-carbonitrile] | 5.00 to 6.00
CNC(=O)c1cc2c(c(-c3ccc(C#N)cc3)c1)CN(C#N)C2 [Example 237, 2-cyano-7-(4-cyanophenyl)-N-methylisoindoline-5-carboxamide] | 5.00 to 6.00
N#Cc1ccc(-c2cc(C(=O)NC3CCOCC3)cc3c2CN(C#N)C3)cc1 [Example 238, 2-cyano-7-(4-cyanophenyl)-N-(tetrahydro-2H-pyran-4-yl)isoindoline-5-carboxamide] | 5.00 to 6.00
CNC(=O)c1cc2c(c(-c3ccc(C#N)cc3C#N)c1)CN(C#N)C2 [Example 239, 2-cyano-7-(2,4-dicyanophenyl)-N-methylisoindoline-5-carboxamide] | 5.00 to 6.00
CNC(=O)c1cc2c(c(-c3ccc(F)cc3)c1)CN(C#N)C2 [Example 240, 2-cyano-7-(4-fluorophenyl)-N-methylisoindoline-5-carboxamide] | > 6.00
N#Cc1ccccc1-c1cc(C(N)=O)cc2c1CN(C#N)C2 [Example 241, 2-cyano-7-(2-cyanophenyl)isoindoline-5-carboxamide] | 5.00 to 6.00

Next, values leading:

pIC50 | Structure (SMILES)
5.00 to 6.00 | N#CN1Cc2nc(NCC3CCOCC3)nc(N3CCc4ccccc4C3)c2C1 [Example 200, 4-(3,4-dihydroisoquinolin-2(1H)-yl)-2-(((tetrahydro-2H-pyran-4-yl)methyl)amino)-5,7-dihydro-6H-pyrrolo[3,4-d]pyrimidine-6-carbonitrile]
5.00 to 6.00 | Cn1cc(CNc2nc3c(c(N4CCc5ccccc5C4)n2)CN(C#N)C3)cn1 [Example 201, 4-(3,4-dihydroisoquinolin-2(1H)-yl)-2-(((1-methyl-1H-pyrazol-4-yl)methyl)amino)-5,7-dihydro-6H-pyrrolo[3,4-d]pyrimidine-6-carbonitrile]
5.00 to 6.00 | N#CN1Cc2nc(NCCO)nc(N3CCc4ccccc4C3)c2C1 [Example 202, 4-(3,4-dihydroisoquinolin-2(1H)-yl)-2-((2-hydroxyethyl)amino)-5,7-dihydro-6H-pyrrolo[3,4-d]pyrimidine-6-carbonitrile]
5.00 to 6.00 | CN1CCOC(CN(C)c2nc3c(c(N4CCc5ccccc5C4)n2)CN(C#N)C3)C1 (stereo not drawn) [Example 203, 4-(3,4-dihydroisoquinolin-2(1H)-yl)-2-(methyl((4-methylmorpholin-2-yl)methyl)amino)-5,7-dihydro-6H-pyrrolo[3,4-d]pyrimidine-6-carbonitrile]
5.00 to 6.00 | CNc1nc2c(c(N3CCC(Oc4ccccc4)CC3)n1)CN(C#N)C2 [Example 204, 2-(methylamino)-4-(4-phenoxypiperidin-1-yl)-5,7-dihydro-6H-pyrrolo[3,4-d]pyrimidine-6-carbonitrile]
5.00 to 6.00 | CN(C)c1nc2c(c(N3CCC(Oc4ccccc4)CC3)n1)CN(C#N)C2 [Example 205, 2-(dimethylamino)-4-(4-phenoxypiperidin-1-yl)-5,7-dihydro-6H-pyrrolo[3,4-d]pyrimidine-6-carbonitrile]
5.00 to 6.00 | N#CN1Cc2nc(NCCO)nc(N3CCC(Oc4ccccc4)CC3)c2C1 [Example 206, 2-((2-hydroxyethyl)amino)-4-(4-phenoxypiperidin-1-yl)-5,7-dihydro-6H-pyrrolo[3,4-d]pyrimidine-6-carbonitrile]
4.52 to 5.00 | N#CN1Cc2nc(N)nc(N3CCC(Oc4ccccc4)CC3)c2C1 [Example 207, 2-amino-4-(4-phenoxypiperidin-1-yl)-5,7-dihydro-6H-pyrrolo[3,4-d]pyrimidine-6-carbonitrile]
4.52 to 5.00 | N#Cc1ccc(-c2nc(NCCO)nc3c2CN(C#N)C3)cc1 [Example 208, 4-(4-cyanophenyl)-2-((2-hydroxyethyl)amino)-5,7-dihydro-6H-pyrrolo[3,4-d]pyrimidine-6-carbonitrile]
5.00 to 6.00 | CC(=O)Nc1cccc(-c2nc(NCCO)nc3c2CN(C#N)C3)c1 [Example 210, N-(3-(6-cyano-2-((2-hydroxyethyl)amino)-6,7-dihydro-5H-pyrrolo[3,4-d]pyrimidin-4-yl)phenyl)acetamide]
> 6.00 | COc1ccc(-c2nc(NCCO)nc3c2CN(C#N)C3)cc1 [Example 211, 2-((2-hydroxyethyl)amino)-4-(4-methoxyphenyl)-5,7-dihydro-6H-pyrrolo[3,4-d]pyrimidine-6-carbonitrile]
5.00 to 6.00 | CN1CCN(c2ccc(-c3nc(NCCO)nc4c3CN(C#N)C4)cc2)CC1 [Example 212, 2-((2-hydroxyethyl)amino)-4-(4-(4-methylpiperazin-1-yl)phenyl)-5,7-dihydro-6H-pyrrolo[3,4-d]pyrimidine-6-carbonitrile]
5.00 to 6.00 | CN(C)Cc1cc2c(c(-c3ccccc3)c1)CN(C#N)C2 [Example 213, 6-((dimethylamino)methyl)-4-phenylisoindoline-2-carbonitrile]
5.00 to 6.00 | CC(=O)NCc1cc2c(c(-c3ccccc3)c1)CN(C#N)C2 [Example 214, N-((2-cyano-7-phenylisoindolin-5-yl)methyl)acetamide]
5.00 to 6.00 | COCCc1cc2c(c(-c3ccccc3)c1)CN(C#N)C2 [Example 215, 6-(2-methoxyethyl)-4-phenylisoindoline-2-carbonitrile]
5.00 to 6.00 | N#Cc1cc2c(c(-c3ccccc3C(N)=O)c1)CN(C#N)C2 [Example 231, 2-(2,6-dicyanoisoindolin-4-yl)benzamide]
